Literature values as cited in PMC6804253, “Predicting and Experimentally Validating Hot-Spot Residues at Protein–Protein Interfaces” (ACS Chemical Biology, 2019).
Where two headings read alike, the source gives them in different places.

System: PPIs of the SKEMPI data set (by PDBID)
Settings: ref SKEMPI, cited from earlier work; for sk_class (class of SKEMPI experimental ΔΔG): class by ΔΔG threshold 4.184 kJ/mol; for sk_ddG_kJ (SKEMPI experimental ΔΔG, mutation to alanine) / sk_ddG_kJ / sk_ddG_kJ (SKEMPI experimental ΔΔG): single mutation to alanine; for sk_ddG_kJ (SKEMPI experimental ΔΔG, mutation to alanine): residue group in r_group; for sk_ddG_kJ: SKEMPI experimental ΔΔG of binding; for sk_class: class of the SKEMPI experimental ΔΔG
[1] = complex given by PDBID, residue group SQNT
[2] = sheet sortedByGroup, r_group FAMILYVW

For 1A22 PA48A, the “sk_class (class of SKEMPI experimental ΔΔG)” value is given as “Neutral (neutral (little effect) 4.184 kJ/mol < ΔΔG > −4.184 kJ/mol)” and the “sk_ddG_kJ (SKEMPI experimental ΔΔG, mutation to alanine)” value (complex given by PDBID) is given as 1.67 kJ.

For 1A22 PA59A, the “sk_class (class of SKEMPI experimental ΔΔG)” value is given as “Neutral (neutral (little effect) 4.184 kJ/mol < ΔΔG > −4.184 kJ/mol)” and the “sk_ddG_kJ (SKEMPI experimental ΔΔG, mutation to alanine)” value (complex given by PDBID) is given as 1.59 kJ.

In the case of 1A22 PA61A, the “sk_class (class of SKEMPI experimental ΔΔG)” value is given as “Positive (positive (a hot residue) ΔΔG ≥ 4.184 kJ/mol)” and the “sk_ddG_kJ (SKEMPI experimental ΔΔG, mutation to alanine)” value (complex given by PDBID) is given as 5.02 kJ.

In the case of 1DQJ DC101A, the sk_ddG_kJ (complex by PDBID) is listed as 6.07 kJ.

In the case of 1DQJ KC96A, the sk_ddG_kJ (complex by PDBID) is given as 25.77 kJ.

For 1DQJ KC97A, the sk_ddG_kJ (complex by PDBID) is given as 14.73 kJ.

In the case of 1DQJ LC75A, the “sk_ddG_kJ (SKEMPI experimental ΔΔG)” value (PPI given by PDBID, sheet sortedByGroup, r_group FAMILYVW) is listed as 6.07 kJ.

For 1DQJ RC21A, the sk_ddG_kJ (complex by PDBID) is listed as 4.90 kJ.

In the case of 1DQJ SC100A, the “sk_ddG_kJ (SKEMPI experimental ΔΔG)” value [1] is given as 3.26 kJ.

For 1DQJ TC89A, the “sk_ddG_kJ (SKEMPI experimental ΔΔG)” value [1] is given as 3.51 kJ.

For 1DQJ WC62A, the “sk_ddG_kJ (SKEMPI experimental ΔΔG)” value [2] is listed as 3.18 kJ.

For 1DQJ WC63A, the “sk_ddG_kJ (SKEMPI experimental ΔΔG)” value [2] is given as 5.65 kJ.

For 1DQJ YC20A, the “sk_ddG_kJ (SKEMPI experimental ΔΔG)” value [2] is given as 13.77 kJ.

In the case of 1GC1 NC30A, the sk_ddG_kJ (PPI given by PDBID) is listed as 0.71 kJ and the sk_class is listed as “Neutral (neutral (little effect) 4.184 kJ/mol < ΔΔG > −4.184 kJ/mol)”.

For 1GC1 NC32A, the sk_ddG_kJ (PPI given by PDBID) is given as 0.75 kJ and the sk_class is given as “Neutral (neutral (little effect) 4.184 kJ/mol < ΔΔG > −4.184 kJ/mol)”.

For 1GC1 NC73A, the sk_ddG_kJ (PPI given by PDBID) is given as -0.46 kJ and the sk_class is given as “Neutral (neutral (little effect) 4.184 kJ/mol < ΔΔG > −4.184 kJ/mol)”.

For 1GC1 QC20A, the sk_ddG_kJ (PPI given by PDBID) is listed as -0.08 kJ and the sk_class is listed as “Neutral (neutral (little effect) 4.184 kJ/mol < ΔΔG > −4.184 kJ/mol)”.

In the case of 1GC1 QC33A, the sk_ddG_kJ (PPI given by PDBID) is given as 0.46 kJ and the sk_class is given as “Neutral (neutral (little effect) 4.184 kJ/mol < ΔΔG > −4.184 kJ/mol)”.

In the case of 1GC1 QC40A, the sk_ddG_kJ (PPI given by PDBID) is given as -1.72 kJ and the sk_class is given as “Neutral (neutral (little effect) 4.184 kJ/mol < ΔΔG > −4.184 kJ/mol)”.

In the case of 1GC1 QC64A, the sk_ddG_kJ (PPI given by PDBID) is given as 1.84 kJ and the sk_class is given as “Neutral (neutral (little effect) 4.184 kJ/mol < ΔΔG > −4.184 kJ/mol)”.

In the case of 1GC1 QC94A, the sk_ddG_kJ (PPI given by PDBID) is listed as -0.46 kJ and the sk_class is listed as “Neutral (neutral (little effect) 4.184 kJ/mol < ΔΔG > −4.184 kJ/mol)”.

In the case of 1GC1 SC23A, the sk_ddG_kJ (PPI given by PDBID) is given as 1.21 kJ and the sk_class is given as “Neutral (neutral (little effect) 4.184 kJ/mol < ΔΔG > −4.184 kJ/mol)”.

In the case of 1GC1 SC31A, the sk_ddG_kJ (PPI given by PDBID) is listed as 0.46 kJ and the sk_class is listed as “Neutral (neutral (little effect) 4.184 kJ/mol < ΔΔG > −4.184 kJ/mol)”.

In the case of 1GC1 SC60A, the sk_ddG_kJ (PPI given by PDBID) is given as -0.38 kJ and the sk_class is given as “Neutral (neutral (little effect) 4.184 kJ/mol < ΔΔG > −4.184 kJ/mol)”.

In the case of 1GC1 TC15A, the sk_ddG_kJ (PPI given by PDBID) is given as 1.34 kJ and the sk_class is given as “Neutral (neutral (little effect) 4.184 kJ/mol < ΔΔG > −4.184 kJ/mol)”.

In the case of 1GC1 TC17A, the sk_ddG_kJ (PPI given by PDBID) is listed as -0.54 kJ and the sk_class is listed as “Neutral (neutral (little effect) 4.184 kJ/mol < ΔΔG > −4.184 kJ/mol)”.

In the case of 1VFB IC124A, the “sk_class (class of SKEMPI experimental ΔΔG)” value is listed as “Positive (positive (a hot residue) ΔΔG ≥ 4.184 kJ/mol)”.

For 1VFB LC129A, the “sk_class (class of SKEMPI experimental ΔΔG)” value is listed as “Neutral (neutral (little effect) 4.184 kJ/mol < ΔΔG > −4.184 kJ/mol)”.

For 1VFB SC24A, the sk_ddG_kJ (PPI given by PDBID) is listed as 3.56 kJ and the sk_class is listed as “Neutral (neutral (little effect) 4.184 kJ/mol < ΔΔG > −4.184 kJ/mol)”.

For 1VFB VC120A, the “sk_class (class of SKEMPI experimental ΔΔG)” value is listed as “Neutral (neutral (little effect) 4.184 kJ/mol < ΔΔG > −4.184 kJ/mol)”.

For 1VFB YC23A, the “sk_class (class of SKEMPI experimental ΔΔG)” value is given as “Neutral (neutral (little effect) 4.184 kJ/mol < ΔΔG > −4.184 kJ/mol)”.

B1: 1IAR TA6A (protein, UniProt P05112 25-153, looked up, variant T6A)
Interleukin-4: HKCDIALQEIIKTLNSLTEQKTLCTELTVTDIFAASKNTTEKETFCRAATVLRQFYSHHEKDTRCLGATAQQFHRHKQLIRFLKRLDRNLWGLAGLNSCPVKEANQSTLENFLERLKTIMREKYSKCSS
In the case of B1, the sk_ddG_kJ (PPI given by PDBID) is listed as -0.42 kJ and the sk_class is listed as “Neutral (neutral (little effect) 4.184 kJ/mol < ΔΔG > −4.184 kJ/mol)”.

B2: 1IAR SA16A (protein, UniProt P05112 25-153, looked up, variant S16A)
Interleukin-4: HKCDITLQEIIKTLNALTEQKTLCTELTVTDIFAASKNTTEKETFCRAATVLRQFYSHHEKDTRCLGATAQQFHRHKQLIRFLKRLDRNLWGLAGLNSCPVKEANQSTLENFLERLKTIMREKYSKCSS
In the case of B2, the sk_ddG_kJ (PPI given by PDBID) is listed as -0.75 kJ and the sk_class is listed as “Neutral (neutral (little effect) 4.184 kJ/mol < ΔΔG > −4.184 kJ/mol)”.

B3: 1IAR QA8A (protein, UniProt P05112 25-153, looked up, variant Q8A)
Interleukin-4: HKCDITLAEIIKTLNSLTEQKTLCTELTVTDIFAASKNTTEKETFCRAATVLRQFYSHHEKDTRCLGATAQQFHRHKQLIRFLKRLDRNLWGLAGLNSCPVKEANQSTLENFLERLKTIMREKYSKCSS
For B3, the sk_ddG_kJ (PPI given by PDBID) is given as -0.08 kJ and the sk_class is given as “Neutral (neutral (little effect) 4.184 kJ/mol < ΔΔG > −4.184 kJ/mol)”.

B4: 1IAR NA89A (protein, UniProt P05112 25-153, looked up, variant N89A)
Interleukin-4: HKCDITLQEIIKTLNSLTEQKTLCTELTVTDIFAASKNTTEKETFCRAATVLRQFYSHHEKDTRCLGATAQQFHRHKQLIRFLKRLDRALWGLAGLNSCPVKEANQSTLENFLERLKTIMREKYSKCSS
In the case of B4, the sk_ddG_kJ (PPI given by PDBID) is listed as 6.53 kJ and the sk_class is listed as “Positive (positive (a hot residue) ΔΔG ≥ 4.184 kJ/mol)”.

B5: 1IAR NA15A (protein, UniProt P05112 25-153, looked up, variant N15A)
Interleukin-4: HKCDITLQEIIKTLASLTEQKTLCTELTVTDIFAASKNTTEKETFCRAATVLRQFYSHHEKDTRCLGATAQQFHRHKQLIRFLKRLDRNLWGLAGLNSCPVKEANQSTLENFLERLKTIMREKYSKCSS
In the case of B5, the sk_ddG_kJ (PPI given by PDBID) is given as -0.13 kJ and the sk_class is given as “Neutral (neutral (little effect) 4.184 kJ/mol < ΔΔG > −4.184 kJ/mol)”.

B6: 1IAR TA13A (protein, UniProt P05112 25-153, looked up, variant T13A)
Interleukin-4: HKCDITLQEIIKALNSLTEQKTLCTELTVTDIFAASKNTTEKETFCRAATVLRQFYSHHEKDTRCLGATAQQFHRHKQLIRFLKRLDRNLWGLAGLNSCPVKEANQSTLENFLERLKTIMREKYSKCSS
In the case of B6, the sk_ddG_kJ (PPI given by PDBID) is listed as 4.10 kJ and the sk_class is listed as “Neutral (neutral (little effect) 4.184 kJ/mol < ΔΔG > −4.184 kJ/mol)”.

B7: 1KTZ IB125A (protein, UniProt P37173 23-166, looked up, variant I125A)
extracellular domain: TIPPHVQKSVNNDMIVTDNNGAVKFPQLCKFCDVRFSTCDNQKSCMSNCSITSICEKPQEVCVAVWRKNDENITLETVCHDPKLPYHDFILEDAASPKCIMKEKKKPGETFFMCSCSSDECNDNAIFSEEYNTSNPDLLLVIFQ
modifications: extracellular domain
For B7, the “sk_class (class of SKEMPI experimental ΔΔG)” value is given as “Neutral (neutral (little effect) 4.184 kJ/mol < ΔΔG > −4.184 kJ/mol)” and the “sk_ddG_kJ (SKEMPI experimental ΔΔG, mutation to alanine)” value (complex given by PDBID) is given as 2.26 kJ.

B8: 2PCC VA197A (protein, UniProt P00431 68-361, looked up, variant V197A)
Cytochrome c peroxidase, …: TTPLVHVASVEKGRSYEDFQKVYNAIALKLREDDEYDNYIGYGPVLVRLAWHTSGTWDKHDNTGGSYGGTYRFKKEFNDPSNAGLQNGFKFLEPIHKEFPWISSGDLFSLGGVTAVQEMQGPKIPWRCGRVDTPEDTTPDNGRLPDADKDADYVRTFFQRLNMNDREVVALMGAHALGKTHLKNSGYEGPWGAANNAFTNEFYLNLLNEDWKLEKNDANNEQWDSKSGYMMLPTDYSLIQDPKYLSIVKEYANDQDKFFKDFSKAFEKLLENGITFPKDAPSPFIFKTLEEQGL
In the case of B8, the “sk_class (class of SKEMPI experimental ΔΔG)” value is listed as “Positive (positive (a hot residue) ΔΔG ≥ 4.184 kJ/mol)” and the “sk_ddG_kJ (SKEMPI experimental ΔΔG, mutation to alanine)” value (complex given by PDBID) is listed as 8.74 kJ.
